# According to US8383607B2, “Perifosine and capecitabine as a combined treatment for cancer” (AEterna Zentaris GmbH, priority 2011, dated 2013):
# Read-outs that look alike come from different tables or passages of the source.
# Experiments:
# [1] = cited from earlier work; for time of peak blood level after administration: after capecitabine administration
# [2] = test system: metastatic colorectal cancer; test: Phase II randomized placebo-controlled expanded study: perifosine with capecitabine vs capecitabine alone; assay type: in vivo, human
# Method: As outlined above, the randomized placebo-controlled study was performed in order to evaluate the effects of perifosine in combination with various cytotoxic agents (i.e., gemcitabine, paclitaxel, docetaxel, doxorubicin, capecitabine, pemetrexed, irinotecan and pegylated liposomal doxorubicin) and to determine if co-administering perifosine and each of these cytotoxic agents results in synergy, and if such synergy overcomes resistance to chemotherapy in cancer cells.
# The study was performed on patients having breast cancer, non-small cell lung cancer, colorectal cancer, prostate cancer, ovarian cancer, head and neck cancer or soft tissue sarcoma, who had received at least one prior chemotherapy regimen. The prior regimen must have been different than the single agent administered in this study. Each patient received a single agent chemotherapy regimen which was judged by a physician as likely to be as beneficial to the patient as any other available therapy.
# Patients received either 50 mg perifosine or placebo daily in combination with single-agent chemotherapy.
# Capecitabine: 825 mg/m^2 twice per day (i.e., 1650 mg/m^2 per day) on days 1-14 every 3 weeks, administered orally (used to treat breast, colorectal, head and neck, prostate, and ovarian cancers);
# The time to progression (TTP) was a primary endpoint for the various treatment groups. Overall survival (OS) rates and overall response rates (ORR) of the patients and the proportion of progression-free patients were secondary endpoints. In addition, the safety of the combined treatments was also evaluated.
# Progression and response (complete response or partial response) were determined according to RECIST 1.0 criteria.
# The Kaplan-Meier method was used to calculate times to progression and overall survival. Median values of the TTP and OS were calculated, as well as the confidence intervals (CI) of the TTP and OS at a 95% confidence level. P-values were calculated for the differences between different treatments.
# Safety of treatments was assessed by monitoring adverse events, which were graded according to the NCI CTCAE version 3.0.
# [3] = test system: refractory advanced colorectal cancer; test: Phase I clinical study: safety of 50 mg perifosine daily with 1000 mg/m^2 capecitabine twice per day; settings: first dose perifosine vs perifosine for eleven days
# Method: A Phase I clinical study was performed for evaluating the safety of 50 mg perifosine daily in combination with 1000 mg/m^2 capecitabine twice per day in patients with refractory advanced colorectal cancer. During a 21 day cycle, perifosine was administered every day, whereas capecitabine was administered orally on days 1-14 of the cycle.
# The study was performed on patients having 3rd line or higher metastatic colorectal cancer, with no prior exposure to perifosine, and who had received, or were not candidates for, regimens containing 5-fluorouracil, oxaliplatin, irinotecan, bevacizumab, and cetuximab or panitumumab. The patients had at least one measurable lesion, as well as adequate bone marrow, liver and renal function.
# Toxicity was graded according to the NCI CTCAE version 3.0, and dose limiting toxicity was defined as any of the following: […]
# a) Grade 3 non-hematological toxicity except alopecia, which is not reversible Grade 2 or less within 96 hours; or
# Physical examination (including vital signs, weight and ECOG performance score) was performed prior to initiation of the treatment, and on day 1 (±3 days) of every cycle thereafter. Adverse event evaluations were monitored and reported promptly.
# [4] = test system: Advancing colorectal cancer (ACRC); Metastatic colorectal cancer (MCRC); settings: cited from earlier work
# [5] = test system: breast cancer, non-small cell lung cancer, colorectal cancer, prostate cancer, ovarian cancer, head and neck cancer or soft tissue sarcoma; test: Phase II portion: perifosine or placebo with single-agent chemotherapy regimens; assay type: in vivo, human; settings: 50 mg perifosine or placebo daily with single-agent chemotherapy
# Method: The prior regimen must have been different than the single agent administered in this study. Each patient received a single agent chemotherapy regimen which was judged by a physician as likely to be as beneficial to the patient as any other available therapy. […] The single-agent chemotherapy regimens were as follows: Paclitaxel: 175 mg/m^2 every 3 weeks or 80 mg/m^2 on days 1, 8 and 15 every 4 weeks, by intravenous infusion over 1 to 3 hours (used to treat breast, prostate and lung cancers); Docetaxel: 75 mg/m^2 every 3 weeks or 35 mg/m^2 on days 1, 8 and 15 every 4 weeks, by intravenous infusion over 1 hour (used to treat head and neck, lung, ovarian and prostate cancers); Gemcitabine: 1000 mg/m^2 on days 1 and 8 every 3 weeks, by infusion over 30 minutes (used to treat sarcoma and lung, ovarian, breast and head and neck cancers); Doxorubicin: 60 mg/m^2 every 3 weeks, by infusion over 30 minutes (used to treat sarcoma and prostate, ovarian, and breast cancers); Pegylated liposomal doxorubicin: 40 mg/m^2 every 4 weeks, by infusion over 30 minutes (used to treat sarcoma and ovarian and breast cancers); Capecitabine: 825 mg/m^2 twice per day (i.e., 1650 mg/m^2 per day) on days 1-14 every 3 weeks, administered orally (used to treat breast, colorectal, head and neck, prostate, and ovarian cancers); Pemetrexed: 500 mg/m^2 every 3 weeks, by intravenous infusion over 10 minutes (used to treat lung and colorectal cancers); and Irinotecan: 100 mg/m^2 on days 1, 8 and 15 every 4 weeks, by intravenous infusion over 90 minutes (used to treat sarcoma and colorectal and lung cancers). The time to progression (TTP) was a primary endpoint for the various treatment groups. Overall survival (OS) rates and overall response rates (ORR) of the patients and the proportion of progression-free patients were secondary endpoints. In addition, the safety of the combined treatments was also evaluated. […] The Kaplan-Meier method was used to calculate times to progression and overall survival. Median values of the TTP and OS were calculated, as well as the confidence intervals (CI) of the TTP and OS at a 95% confidence level. P-values were calculated for the differences between different treatments.
# [6] = 5-FU-refractory metastatic colorectal cancer patients, listed as capecitabine alone
# [7] = 5-FU-refractory metastatic colorectal cancer patients, listed as placebo+capecitabine
# [8] = after 12 weeks, 5-FU refractory evaluable patients (14 combination, 11 capecitabine alone)
# [9] = after 12 weeks, evaluable metastatic colorectal cancer patients (20 combination, 15 capecitabine alone)
# [10] = all metastatic colorectal cancer patients, 50 mg perifosine or placebo daily + capecitabine 1650 mg/m^2 per day days 1-14 every 21 days
# [11] = 2x daily 1250 mg/m2 (total 2500 mg/m2), MCRC, Asia-Pac J Clin Oncol. 2011, 82-87
# [12] = 2x daily 1000-1250 mg/m2, ACRC, Acta Oncologica, 2005, 44: 236-239
# [13] = 7 patients 2x daily 1250 mg/m2, after toxicity dose diluted to 1000 mg/m2, ACRC, Anticancer Res. 26: 1669-1672 (2006)
smiles,measurement,setting,value
O=c1[nH]cc(F)c(=O)[nH]1 [5-fluorouracil],time of peak blood level after administration,[1],2 h
CCCCCOC(=O)Nc1nc(=O)n([C@@H]2O[C@H](C)[C@@H](O)[C@H]2O)cc1F [capecitabine],Median OS,[2]; 5-FU refractory,6.6 mo. for 5-FU
same,Median TTP,[2]; 5-FU refractory,10 weeks for 5-FU
same,median overall survival (OS),[2]; [6],6.8 months
same,median time to progression (TTP),[2]; [6],10 weeks
same,median overall survival (OS),[2]; [7],6.6 months
same,median time to progression (TTP),[2]; [7],11 weeks
same,Grade 3 and 4 adverse events: anemia,[2]; NCI CTCAE version 3.0,0%
same,Grade 3 and 4 adverse events: hand/foot syndrome,[2]; NCI CTCAE version 3.0,0%
same,patients who achieved stable disease (progression-free for 3 months or greater),[2]; [8],3
same,patients with partial response,[2]; [8],none
same,proportion of patients who achieved stable disease,[2]; [8],27%
same,patients who achieved stable disease (progression-free for 3 months or greater),[2]; [9],6
same,patients with partial response,[2]; [9],1
same,proportion of patients who achieved stable disease,[2]; [9],40%
same,patients with complete response,"[2]; after 12 weeks, evaluable metastatic colorectal cancer patients (20 combination, 15 capecitabine alone), RECIST 1.0",none
same,median overall survival (OS),[2]; [10],10.9 months
same,median time to progression (TTP),[2]; [10],11 weeks
same,Median OS,[2]; all patients,refractory; 10.9 mo.
same,Median TTP,[2]; all patients,refractory; 11 weeks
same,patients who discontinued treatment due to an adverse event,[2]; in vivo,2
same,"PK parameters for capecitabine or its metabolites, Cycle 1 Day 1 vs Cycle 1 Day 11",[3],no statistically significant differences
same,time of peak blood level after administration,[1],about 1.5 hours
same,effect of food on capecitabine absorption,[1]; in vivo,reduces both the rate and extent
same,elimination half-life,[1]; in vivo,about ¾
same,Median OS,[4]; [11],5.3 months
same,Median TTP,[4]; [11],2.3 months
same,Median OS,[4]; [12],6.1 mos.
same,Median TTP,[4]; [12],2.8 mos.
same,Median OS,[4]; [13],5.2 mos.
same,Median TTP,[4]; [13],4 mos.
CC(=O)O[C@@]12CO[C@@H]1C[C@H](O)[C@@]1(C)C(=O)[C@H](O)C3=C(C)[C@@H](OC(=O)[C@H](O)[C@@H](NC(=O)OC(C)(C)C)c4ccccc4)C[C@@](O)([C@@H](OC(=O)c4ccccc4)[C@H]21)C3(C)C [docetaxel],beneficial effect of perifosine (improvement in combination with perifosine) in subjects receiving the chemotherapeutic agent,[5],not to occur
COc1cccc2c1C(=O)c1c(O)c3c(c(O)c1C2=O)C[C@@](O)(C(=O)CO)C[C@@H]3O[C@H]1C[C@H](N)[C@H](O)[C@H](C)O1 [doxorubicin],beneficial effect of perifosine (improvement in combination with perifosine) in subjects receiving the chemotherapeutic agent,[5],not to occur
Nc1ccn([C@@H]2O[C@H](CO)[C@@H](O)C2(F)F)c(=O)n1 [gemcitabine],beneficial effect of perifosine (improvement in combination with perifosine) in subjects receiving the chemotherapeutic agent,[5],not to occur
CCc1c2c(nc3ccc(OC(=O)N4CCC(N5CCCCC5)CC4)cc13)-c1cc3c(c(=O)n1C2)COC(=O)[C@]3(O)CC [irinotecan],beneficial effect of perifosine (improvement in combination with perifosine) in subjects receiving the chemotherapeutic agent,[5],not to occur
CC(=O)O[C@H]1C(=O)[C@@]2(C)[C@H]([C@H](OC(=O)c3ccccc3)[C@]3(O)C[C@H](OC(=O)[C@H](O)[C@@H](NC(=O)c4ccccc4)c4ccccc4)C(C)=C1C3(C)C)[C@]1(OC(C)=O)CO[C@@H]1C[C@@H]2O [paclitaxel],beneficial effect of perifosine (improvement in combination with perifosine) in subjects receiving the chemotherapeutic agent,[5],not to occur
Nc1nc2[nH]cc(CCc3ccc(C(=O)N[C@@H](CCC(=O)O)C(=O)O)cc3)c2c(=O)[nH]1 [pemetrexed],beneficial effect of perifosine (improvement in combination with perifosine) in subjects receiving the chemotherapeutic agent,[5],not to occur
